This is an account of results in ChEMBL document CHEMBL6121052, “Design of ROS-Triggered Sesquiterpene Lactone SC Prodrugs as TrxR1 Covalent Inhibitors for the Treatment of Non-Small Cell Lung Cancer” (J Med Chem, 2025).

Active and inactive are the calls of the source. The calls are words filed in the database; no cut-off is given here.

One assay deals with A549. The assay can be described thus: Cytotoxicity against human A549 cells assessed as cell viability incubated for 48 hrs by MTT assay. The format is functional, cell-based. The following applies: A549, 48 h. A general note: Formazan colour is commonly taken as a measure of viable cells.
In a further assay the test system is NCI-H460. The experiment in a line: Cytotoxicity against human NCI-H460 cells assessed as cell viability incubated for 48 hrs by MTT assay. The assay is classed as functional, cell-based. The following applies: for IC50: NCI-H460, 48 h.

Broadly, the IC50 is the point on the concentration scale where inhibition reaches its midpoint.

Turning to `C/C1=C\[C@@H](OC(=O)C2CC2)[C@H]2[C@H](CC3=C[C@H](C1)OC3=O)OC(=O)[C@@H]2CSc1ccc(SC[C@H]2C(=O)O[C@H]3CC4=C[C@H](C/C(C)=C/[C@@H](OC(=O)C5CC5)[C@@H]32)OC4=O)cc1`, the concentration for half-maximal inhibition (IC50) is 1.15 µM in the assay with A549 and more than 25 µM in the assay with NCI-H460.

On to `C/C1=C\[C@@H](OC(=O)SC2CCCCC2)[C@H]2[C@H](CC3=C[C@H](C1)OC3=O)OC(=O)[C@@H]2CSC(=S)N(C)C`, for which the IC50 in the assay with A549 stood at 2.01 µM.

`C/C1=C\[C@@H](O)[C@H]2[C@H](CC3=C[C@H](C1)OC3=O)OC(=O)[C@@H]2CSc1ccc(Br)cc1`: the IC50 with A549 is 15.2 µM; with NCI-H460, more than 25 µM.

Regarding `C/C1=C\[C@@H](OC(=O)c2ccccc2)[C@H]2[C@H](CC3=C[C@H](C1)OC3=O)OC(=O)[C@@H]2CSCc1ccc(Cl)cc1`, the IC50 in the assay with A549 and in the assay on NCI-H460 was more than 25 µM throughout.

Regarding `CCCNC(=O)O[C@@H]1/C=C(\C)C[C@H]2C=C(C[C@@H]3OC(=O)[C@H](CSc4ccc(F)cc4)[C@H]31)C(=O)O2`, the half-inhibitory concentration (IC50) with A549 was found to be 10.5 µM.

For `C/C1=C\[C@@H](OC(=O)/C=C/c2ccccc2)[C@H]2[C@H](CC3=C[C@H](C1)OC3=O)OC(=O)[C@@H]2CSCCCCCCSC[C@H]1C(=O)O[C@H]2CC3=C[C@H](C/C(C)=C/[C@@H](OC(=O)/C=C/c4ccccc4)[C@@H]21)OC3=O`, the half-inhibitory concentration (IC50) in the assay with A549 and with NCI-H460 was more than 25 µM each time.

For the molecule `C/C1=C\[C@@H](O)[C@H]2[C@H](CC3=C[C@H](C1)OC3=O)OC(=O)[C@@H]2CSCCCCCCCCSC[C@H]1C(=O)O[C@H]2CC3=C[C@H](C/C(C)=C/[C@@H](O)[C@@H]21)OC3=O`, the half-inhibitory concentration (IC50) with A549 and in the assay with NCI-H460 was more than 25 µM throughout.

`C/C1=C\[C@@H](OC(=O)/C=C/c2ccccc2)[C@H]2[C@H](CC3=C[C@H](C1)OC3=O)OC(=O)[C@@H]2CSCCCCCCCCSC[C@H]1C(=O)O[C@H]2CC3=C[C@H](C/C(C)=C/[C@@H](OC(=O)/C=C/c4ccccc4)[C@@H]21)OC3=O`: the half-maximal inhibitory concentration (IC50) with A549 and in the assay on NCI-H460 was more than 25 µM each time.

For `C/C1=C\[C@@H](OC(=O)/C=C/c2ccccc2)[C@H]2[C@H](CC3=C[C@H](C1)OC3=O)OC(=O)[C@@H]2CSc1ccc(F)cc1`, the IC50 was 11.3 µM in the assay with A549 and more than 25 µM in the assay on NCI-H460.

For `C/C1=C\[C@@H](OC(=O)/C=C/c2ccccc2)[C@H]2[C@H](CC3=C[C@H](C1)OC3=O)OC(=O)[C@@H]2CSc1ccc(SC[C@H]2C(=O)O[C@H]3CC4=C[C@H](C/C(C)=C/[C@@H](OC(=O)/C=C/c5ccccc5)[C@@H]32)OC4=O)cc1`, the IC50 in the assay on A549 and with NCI-H460 was more than 25 µM throughout.

Take `C/C1=C\[C@@H](OC(=O)/C=C/c2ccccc2)[C@H]2[C@H](CC3=C[C@H](C1)OC3=O)OC(=O)[C@@H]2CSc1cccc(Br)c1`: the figures for the half-inhibitory concentration (IC50) with A549 and in the assay with NCI-H460 were 8.61 µM and more than 25 µM, respectively.

As to `C/C1=C\[C@@H](O)[C@H]2[C@H](CC3=C[C@H](C1)OC3=O)OC(=O)[C@@H]2CSCCOCCOCCSC[C@H]1C(=O)O[C@H]2CC3=C[C@H](C/C(C)=C/[C@@H](O)[C@@H]21)OC3=O`, the IC50 with A549 and in the assay with NCI-H460 was more than 25 µM throughout.

With `C/C1=C\[C@@H](OC(=O)c2ccccc2)[C@H]2[C@H](CC3=C[C@H](C1)OC3=O)OC(=O)[C@@H]2CSCCOCCOCCSC[C@H]1C(=O)O[C@H]2CC3=C[C@H](C/C(C)=C/[C@@H](OC(=O)c4ccccc4)[C@@H]21)OC3=O`, the IC50 with A549 and with NCI-H460 was more than 25 µM in each case.

Take `C/C1=C\[C@@H](OC(=O)c2ccccc2)[C@H]2[C@H](CC3=C[C@H](C1)OC3=O)OC(=O)[C@@H]2CSc1ccc(C(F)(F)F)cc1`: the IC50 came out at 3.74 µM with A549 and 24.4 µM in the assay with NCI-H460.

For the molecule `C/C1=C\[C@@H](OC(=O)c2ccccc2)[C@H]2[C@H](CC3=C[C@H](C1)OC3=O)OC(=O)[C@@H]2CSc1nc2ccccc2s1`, the concentration for half-maximal inhibition (IC50) with A549 and in the assay with NCI-H460 was more than 25 µM each time.

Take `C/C1=C\[C@@H](OC(=O)NC2CC2)[C@H]2[C@H](CC3=C[C@H](C1)OC3=O)OC(=O)[C@@H]2CSC(=S)N(C)C`: the IC50 with A549 worked out at 2.08 µM.

For `C/C1=C\[C@@H](O)[C@H]2[C@H](CC3=C[C@H](C1)OC3=O)OC(=O)[C@@H]2CSCCCCCCSC[C@H]1C(=O)O[C@H]2CC3=C[C@H](C/C(C)=C/[C@@H](O)[C@@H]21)OC3=O`, the IC50 is 21.9 µM with A549 and more than 25 µM in the assay with NCI-H460.

In the case of `C/C1=C\[C@@H](O)[C@H]2[C@H](CC3=C[C@H](C1)OC3=O)OC(=O)[C@@H]2CSc1nc2ccccc2s1`, the half-inhibitory concentration (IC50) with A549 and in the assay with NCI-H460 was more than 25 µM each time.

Consider `C/C1=C\[C@@H](OC(=O)C2CC2)[C@H]2[C@H](CC3=C[C@H](C1)OC3=O)OC(=O)[C@@H]2CSC1CCCCC1`, for which the 50% inhibitory concentration (IC50) in the assay on A549 and in the assay with NCI-H460 was more than 25 µM throughout.

Turning to `C/C1=C\[C@@H](OC(=O)C2CC2)[C@H]2[C@H](CC3=C[C@H](C1)OC3=O)OC(=O)[C@@H]2CSCC(C)C`, the IC50 in the assay with A549 and in the assay on NCI-H460 was more than 25 µM throughout.

With `CCCCCSC[C@H]1C(=O)O[C@H]2CC3=C[C@H](C/C(C)=C/[C@@H](OC(=O)C4CC4)[C@@H]21)OC3=O`, the concentration for half-maximal inhibition (IC50) in the assay with A549 and in the assay with NCI-H460 was more than 25 µM in each case.

For the molecule `C/C1=C\[C@@H](OC(=O)/C=C/c2ccccc2)[C@H]2[C@H](CC3=C[C@H](C1)OC3=O)OC(=O)[C@@H]2CSC1CCCCC1`, the concentration for half-maximal inhibition (IC50) in the assay on A549 and in the assay on NCI-H460 was more than 25 µM in each case.

Regarding `C/C1=C\[C@@H](OC(=O)C2CC2)[C@H]2[C@H](CC3=C[C@H](C1)OC3=O)OC(=O)[C@@H]2CSc1cccc(F)c1`, the concentration for half-maximal inhibition (IC50) came out at 5.4 µM in the assay with A549 and 13.2 µM in the assay on NCI-H460.

With `C/C1=C\[C@@H](OC(=O)/C=C/c2ccccc2)[C@H]2[C@H](CC3=C[C@H](C1)OC3=O)OC(=O)[C@@H]2CSCCOCCOCCSC[C@H]1C(=O)O[C@H]2CC3=C[C@H](C/C(C)=C/[C@@H](OC(=O)/C=C/c4ccccc4)[C@@H]21)OC3=O`, the concentration for half-maximal inhibition (IC50) in the assay with A549 and with NCI-H460 was more than 25 µM each time.

Take `C/C1=C\[C@@H](OC(=O)OCc2cccs2)[C@H]2[C@H](CC3=C[C@H](C1)OC3=O)OC(=O)[C@@H]2CSc1ccc(F)cc1`: the IC50 with A549 came to 22.6 µM.

For the molecule `C/C1=C\[C@@H](OC(=O)/C=C/c2ccccc2)[C@H]2[C@H](CC3=C[C@H](C1)OC3=O)OC(=O)[C@@H]2CSc1nc2ccccc2s1`, the 50% inhibitory concentration (IC50) in the assay with A549 and in the assay with NCI-H460 was more than 25 µM in each case.

For `C/C1=C\[C@@H](OC(=O)c2ccccc2)[C@H]2[C@H](CC3=C[C@H](C1)OC3=O)OC(=O)[C@@H]2CSCCCCCCCCCCSC[C@H]1C(=O)O[C@H]2CC3=C[C@H](C/C(C)=C/[C@@H](OC(=O)c4ccccc4)[C@@H]21)OC3=O`, the half-maximal inhibitory concentration (IC50) in the assay on A549 and with NCI-H460 was more than 25 µM in each case.

Regarding `C/C1=C\[C@@H](OC(=O)/C=C/c2ccccc2)[C@H]2[C@H](CC3=C[C@H](C1)OC3=O)OC(=O)[C@@H]2CSc1ccc(Br)cc1`, the IC50 with A549 was 11.8 µM; with NCI-H460 it was more than 25 µM.

With `C/C1=C\[C@@H](OC(=O)c2ccccc2)[C@H]2[C@H](CC3=C[C@H](C1)OC3=O)OC(=O)[C@@H]2CSc1cccc(F)c1`, the 50% inhibitory concentration (IC50) in the assay on A549 is 6.17 µM; in the assay on NCI-H460, more than 25 µM.

As to `C/C1=C\[C@@H](OC(=O)NCc2cccs2)[C@H]2[C@H](CC3=C[C@H](C1)OC3=O)OC(=O)[C@@H]2CSc1ccc(F)cc1`, the half-inhibitory concentration (IC50) in the assay with A549 amounted to 5.51 µM.

With `C/C1=C\[C@@H](OC(=O)OCc2ccc(F)cc2)[C@H]2[C@H](CC3=C[C@H](C1)OC3=O)OC(=O)[C@@H]2CSc1ccc(F)cc1`, in the assay on A549, the concentration for half-maximal inhibition (IC50) was found to be 7.29 µM.

`C/C1=C\[C@@H](OC(=O)SCC(C)C)[C@H]2[C@H](CC3=C[C@H](C1)OC3=O)OC(=O)[C@@H]2CSC(=S)N(C)C`: the 50% inhibitory concentration (IC50) with A549 was 1.37 µM.

With `C/C1=C\[C@@H](OC(=O)NCc2cccs2)[C@H]2[C@H](CC3=C[C@H](C1)OC3=O)OC(=O)[C@@H]2CSC(=S)N(C)C`, in the assay on A549, the half-inhibitory concentration (IC50) was determined as 2.8 µM.

Turning to `C[C@@]12C[C@H]3C=C(C[C@@H]4OC(=O)[C@H](CSc5ccc(F)cc5)[C@H]4[C@H](OC(=O)C4CC4)[C@H]1O2)C(=O)O3`, the result in the assay with NCI-H460 was inactive.

Turning to `C/C1=C\[C@@H](OC(=O)NC2CC2)[C@H]2[C@H](CC3=C[C@H](C1)OC3=O)OC(=O)[C@@H]2CSc1ccc(F)cc1`, in the assay on A549, the concentration for half-maximal inhibition (IC50) was determined as 15.9 µM.

As for `C/C1=C\[C@@H](OC(=O)N2CCCC2)[C@H]2[C@H](CC3=C[C@H](C1)OC3=O)OC(=O)[C@@H]2CSc1ccc(F)cc1`, in the assay on A549, the IC50 stood at 7.51 µM.

Take `C/C1=C\[C@@H](OC(=O)SC2CCCCC2)[C@H]2[C@H](CC3=C[C@H](C1)OC3=O)OC(=O)[C@@H]2CSc1ccc(F)cc1`: in the assay on A549, the 50% inhibitory concentration (IC50) turned out to be 3.94 µM.

As for `C#CCNC(=O)O[C@@H]1/C=C(\C)C[C@H]2C=C(C[C@@H]3OC(=O)[C@H](CSc4ccc(F)cc4)[C@H]31)C(=O)O2`, the concentration for half-maximal inhibition (IC50) in the assay with A549 was 22.1 µM.

Turning to `C/C1=C\[C@@H](OC(=O)OCc2cccs2)[C@H]2[C@H](CC3=C[C@H](C1)OC3=O)OC(=O)[C@@H]2CSC(=S)N(C)C`, the half-inhibitory concentration (IC50) in the assay on A549 came out at 2.56 µM.

For `CCCCCSC(=O)O[C@@H]1/C=C(\C)C[C@H]2C=C(C[C@@H]3OC(=O)[C@H](CSc4ccc(F)cc4)[C@H]31)C(=O)O2`, the IC50 with A549 turned out to be 10.7 µM.

On to `C/C1=C\[C@@H](OC(=O)NCc2cccnc2)[C@H]2[C@H](CC3=C[C@H](C1)OC3=O)OC(=O)[C@@H]2CSc1ccc(F)cc1`, for which, in the assay on A549, the half-inhibitory concentration (IC50) was found to be 19.3 µM.

Regarding `C/C1=C\[C@@H](OC(=O)OC2CC2)[C@H]2[C@H](CC3=C[C@H](C1)OC3=O)OC(=O)[C@@H]2CSC(=S)N(C)C`, the half-inhibitory concentration (IC50) in the assay with A549 was determined as 1.29 µM.

For `C#CCNC(=O)O[C@@H]1/C=C(\C)C[C@H]2C=C(C[C@@H]3OC(=O)[C@H](CSC(=S)N(C)C)[C@H]31)C(=O)O2`, the half-inhibitory concentration (IC50) with A549 turned out to be 1.76 µM.
